Entries after “also recorded” stand apart in the source; their conditions may differ. Bridge positions count the residues as written; N and C are the ends. Peptide text beside a SMILES is read from it.
System: KLK5-mediated PAR2 activation
Assay: PAR2-dependent intracellular calcium mobilization assay in N/TERT keratinocytes
Type: cell-based
Conditions: 2.5 to 40 μM, rKLK5 10 μM, preincubated one hour, n = 3, listed as lead 7
Excerpt: PAR2, a member of the G-protein-coupled receptor family expressed in keratinocytes, is a known downstream target of KLK5. KLK5 activates PAR2 by cleaving its extracellular N-terminal domain. This cleavage exposes a tethered ligand, which binds PAR2 intramolecularly to activate the receptor. , Activated PAR2 causes protein kinase C (PKC) and inositol 1,4,5-trisphosphate (IP3) activation, leading to calcium release from the endoplasmic reticulum, known as intracellular calcium mobilization. […] This delay is attributed to the time required for KLK5 to enzymatically cleave the extracellular N-terminal domain of PAR2, thereby exposing the tethered ligand sequence necessary to initiate receptor activation and downstream calcium signaling. […] This observation confirmed PAR2-dependent calcium mobilization and that rKLK5 could initiate PAR2 activation. The inhibition potential of lead 7 on KLK5 activity was then assessed by using this assay. rKLK5 was preincubated with lead 7 at concentrations of 2.5, 5, 20, or 40 μM for one hour before being applied to cultured keratinocytes, after which PAR2-dependent calcium mobilization was measured.
For Ki calculation, Km values for KLK5 and its substrate Boc-VPR-AMC were previously reported in the literature 8, 9, allowing the conversion from IC50 to Ki using the Cheng Prusoff equation10 Kᵢ = IC₅₀ / (1 + [S]/Kₘ) for single-site competitive binding.
Cell lines and tissue cultures
Keratinocytes isolated from the skin in a patient with genetic skin disease Netherton Syndrome (NS19) and in healthy donors (C42, C46, P8) were used in the study. […]
The immortalized keratinocyte cell line (N/TERT)13, 14 were used for the assay. […] The cells were counted, and 100 µL of the suspension, at a density of 600,000 cells/mL, was seeded into each well of a 96 -well microplate. […]
calcium signalling. […] Fluorescence excitation was set at 485 nm, and emission was recorded at 520 nm using SpectraMax® i3x plate reader. […]

SMILES: C[C@@H](O)[C@@H]1NC(=O)[C@@H]2CSSC[C@H](NC(=O)[C@H](CCC(=O)O)NC(=O)[C@@H]3CCCN3C(=O)[C@@H]3CCCN3C(=O)[C@H](CC(N)=O)NC(=O)[C@H](CO)NC(=O)[C@H](CCCNC(=N)N)NC1=O)C(=O)N[C@@H](Cc1c[nH]c3ccccc13)C(=O)N1CCC[C@H]1C(=O)N[C@@H](CC(N)=O)C(=O)NCC(=O)N[C@@H](Cc1ccccc1)C(=O)N2 [compound 7] (cyclo(GFCTRSNPPECWPN); disulfide 3-11)
- PAR2-dependent calcium mobilization after rKLK5 preincubated with inhibitor: dose-dependent reduction; also recorded: progressive reduction in calcium release

— paper PMC12670400, “LEKTI-Grafted Sunflower Trypsin Inhibitor: A Potential Therapeutic for Skin Diseases” (Journal of Medicinal Chemistry, 2025)
